This passage reports IC50 results from US9029377B2, “Platelet-activating factor receptor antagonists” (Merck Sharp & Dohme Corp., priority 2009, dated 2015).

For the assay, the target named is PAFR (Homo sapiens, UniProt P25105). As to the kind of experiment: PAF Binding Assay (PAFR binding).
Sequence of PAFR (P25105 whole entry): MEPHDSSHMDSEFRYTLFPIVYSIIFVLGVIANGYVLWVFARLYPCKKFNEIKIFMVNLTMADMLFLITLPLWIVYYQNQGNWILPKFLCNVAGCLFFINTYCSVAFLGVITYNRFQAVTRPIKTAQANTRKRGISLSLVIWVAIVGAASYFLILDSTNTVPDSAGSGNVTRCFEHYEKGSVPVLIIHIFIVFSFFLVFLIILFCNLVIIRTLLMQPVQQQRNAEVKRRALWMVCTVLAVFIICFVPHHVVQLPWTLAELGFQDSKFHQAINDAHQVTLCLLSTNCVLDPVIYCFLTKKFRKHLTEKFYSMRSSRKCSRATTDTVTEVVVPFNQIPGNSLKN
`O=S(=O)(N[C@H]1CCC[C@@H](n2cnnc2)C1)c1ccc(-c2ccc(OC(F)(F)F)cc2)c(F)c1` [Compound 2Ea, 2-fluoro-N-[(1S,3R)-3-(4H-1,2,4-triazol-4-yl)cyclohexyl]-4′-(trifluoromethoxy)biphenyl-4-sulfonamide]: the concentration for half-maximal inhibition (IC50) turned out to be 5.8 nM.

As to `O=S(=O)(N[C@H]1CCC[C@@H](n2cnnc2)C1)c1cc(-c2cc(Cl)cn3cc(CCl)nc23)cc(C(F)(F)F)c1` [Compound 3Aav, 3-[6-chloro-2-(chloromethyl)imidazo[1,2-a]pyridin-8-yl]-N-[(1S,3R)-3-(4H-1,2,4-triazol-4-yl)cyclohexyl]-5-(trifluoromethyl)benzenesulfonamide], the half-maximal inhibitory concentration (IC50) amounted to 22 nM.

Turning to `O=S(=O)(N[C@H]1CCC[C@@H](n2cnnc2)C1)c1cc(-c2ccc(C(F)(F)F)cc2)cc(C(F)(F)F)c1` [Compound 3Al, N-[(1S,3R)-3-(4H-1,2,4-triazol-4-yl)cyclohexyl]-4′,5-bis(trifluoromethyl)biphenyl-3-sulfonamide], the IC50 stood at 8.1 nM.

Regarding `O=S(=O)(N[C@@H]1C[C@H](n2cnnc2)CC(F)(F)C1)c1cc(-c2ccc(F)cc2)cc(C(F)(F)F)c1` [3 Cc], the IC50 came out at 36 nM.

As to `O=S(=O)(N[C@H]1CCC[C@@H](n2cnnc2)C1)c1cc(-c2ccnc3ccnn23)cc(C(F)(F)F)c1` [Compound 9c, 3-pyrazolo[1,5-a]pyrimidin-7-yl-N-[(1S,3R)-3-(4H-1,2,4-triazol-4-yl)cyclohexyl]-5-(trifluoromethyl)benzenesulfonamide], the 50% inhibitory concentration (IC50) was 5.9 nM.

For `O=S(=O)(N[C@H]1CCC[C@@H](c2cccnc2)C1)c1ccc(-c2noc(C3CC3)n2)cc1` (relative stereo) [Compound 8e, 4-(5-cyclopropyl-1,2,4-oxadiazol-3-yl)-N-(3-pyridin-cis-3-ylcyclohexyl)benzenesulfonamide], the IC50 was 1.9 nM.

For `O=S(=O)(N[C@H]1CCC[C@@H](n2cnnc2)C1)c1ccc(-c2noc(C3(O)CC3)n2)cc1C1CC1` [Compound 2Ke, 2-cyclopropyl-4-[5-(1-hydroxycyclopropyl)-1,2,4-oxadiazol-3-yl]-N-[(1S,3R)-3-(4H-1,2,4-triazol-4-yl)cyclohexyl]benzenesulfonamide], the IC50 was found to be 337 nM.

`COc1ncccc1-c1cc(F)cc(S(=O)(=O)N[C@H]2CCC[C@@H](n3cnnc3)C2)c1` [Compound 3Fb, 3-fluoro-5-(2-methoxypyridin-3-yl)-N-[(1S,3R)-3-(4H-1,2,4-triazol-4-yl)cyclohexyl]benzenesulfonamide] yielded an IC50 of 9 nM.

`Cc1cn2nc(-c3cc(C(F)(F)F)cc(S(=O)(=O)N[C@H]4CCC[C@@H](n5cnnc5)C4)c3)ccc2n1` [Compound 3Aai, 3-(2-methylimidazo[1,2-b]pyridazin-6-yl)-N-[(1S,3R)-3-(4H-1,2,4-triazol-4-yl)cyclohexyl]-5-(trifluoromethyl)benzenesulfonamide]: the IC50 is 4.1 nM.

Take `CCc1cc(-c2cccn3ccnc23)ccc1S(=O)(=O)N[C@H]1CCC[C@@H](n2cnnc2)C1` [Compound 2d, 2-ethyl-4-imidazo[1,2-a]pyridin-8-yl-N-[(1S,3R)-3-(4H-1,2,4-triazol-4-yl)cyclohexyl]benzenesulfonamide]: the IC50 was determined as 3.9 nM.

`O=S(=O)(N[C@H]1CCC[C@@H](n2cnnc2)C1)c1cc(-c2cccnc2O)cc(C(F)(F)F)c1` [Compound 3Aj, 3-(2-hydroxypyridin-3-yl)-N-[(1S,3R)-3-(4H-1,2,4-triazol-4-yl)cyclohexyl]-5-(trifluoromethyl)benzenesulfonamide]: the IC50 turned out to be 12 nM.

`CCc1cc(-c2ccc(OC(C)C)nc2)ccc1S(=O)(=O)N[C@H]1CCC[C@@H](n2cnnc2C)C1` [Compound 2Abc, 2-ethyl-4-(6-isopropoxypyridin-3-yl)-N-[(1S,3R)-3-(3-methyl-4H-1,2,4-triazol-4-yl)cyclohexyl]benzenesulfonamide] showed an IC50 of 0.5 nM.

Compound `CCc1cc(-c2ccc(OC(F)(F)F)c(F)c2)ccc1S(=O)(=O)N[C@H]1CCC[C@@H](n2cnnc2C)C1` [Compound 2Abf, 3-ethyl-3′-fluoro-N-[(1S,3R)-3-(3-methyl-4H-1,2,4-triazol-4-yl)cyclohexyl]-4′-(trifluoromethoxy)biphenyl-4-sulfonamide] yielded an IC50 of 2.7 nM.

On to “3-[1,2,4]triazolo[1,5-a]pyrimidin-7-yl-N-[(1R,5S)-3,3-difluoro-5-(3-methyl-4H-1,2,4-triazol-4-yl)cyclohexyl]-5-(trifluoromethyl)benzenesulfonamide [Compound 9Ac]”, for which the IC50 turned out to be 86 nM.

Take `Nc1cnc(-c2cc(C(F)(F)F)cc(S(=O)(=O)N[C@H]3CCC[C@@H](n4cnnc4)C3)c2)cn1` [Compound 3Aw, 3-(5-aminopyrazin-2-yl)-N-[(1S,3R)-3-(4H-1,2,4-triazol-4-yl)cyclohexyl]-5-(trifluoromethyl)benzenesulfonamide]: the half-maximal inhibitory concentration (IC50) turned out to be 6.6 nM.

In turn, `O=S(=O)(N[C@H]1CCC[C@@H](n2cnnc2)C1)c1cc(-c2ccccc2F)cc(C(F)(F)F)c1` [Compound 3At, 2′-fluoro-N-[(1S,3R)-3-(4H-1,2,4-triazol-4-yl)cyclohexyl]-5-(trifluoromethyl)biphenyl-3-sulfonamide] had an IC50 of 5.4 nM.

With `O=S(=O)(N[C@H]1CCC[C@@H](n2cnnc2)C1)c1cccc(OC(F)F)c1` [Compound 2Md, 3-(difluoromethoxy)-N-[(1S,3R)-3-(4H-1,2,4-triazol-4-yl)cyclohexyl]benzenesulfonamide], the IC50 came out at 323 nM.

In the case of `O=S(=O)(N[C@H]1CCC[C@@H](n2cnnc2)C1)c1cc(F)cc(-c2cccc3cccnc23)c1` [Compound 3Fc, 3-fluoro-5-quinolin-8-yl-N-[(1S,3R)-3-(4H-1,2,4-triazol-4-yl)cyclohexyl]benzenesulfonamide], the IC50 came to 1 nM.

Compound `Cc1nncn1[C@H]1C[C@@H](NS(=O)(=O)c2cc(-c3ccn[nH]3)cc(C(F)(F)F)c2)CC(F)(F)C1` [Compound 9Ae] yielded an IC50 of 18 nM.

On to `Cc1cn(-c2ccc(S(=O)(=O)N[C@H]3CCC[C@@H](n4cnnc4C)C3)cc2)cn1` [Compound 2Nt, 4-(4-methyl-1H-imidazol-1-yl)-N-[(1S,3R)-3-(3-methyl-4H-1,2,4-triazol-4-yl)cyclohexyl]benzenesulfonamide], for which the IC50 worked out at 870 nM.

Consider `CC(C)Oc1ccc(-c2ccc(S(=O)(=O)N[C@H]3CCC[C@@H](n4cnnc4)C3)cc2F)cc1` [Compound 2Ed, 2-fluoro-4′-isopropoxy-N-[(1S,3R)-3-(4H-1,2,4-triazol-4-yl)cyclohexyl]biphenyl-4-sulfonamide], for which the 50% inhibitory concentration (IC50) worked out at 15 nM.

For the compound `CCc1cc(-c2ccc(OC(C)C)cc2)ccc1S(=O)(=O)N[C@H]1CCC[C@@H](n2cnnc2)C1` [Compound 2Aaj, 3-ethyl-4′-isopropoxy-N-[(1S,3R)-3-(4H-1,2,4-triazol-4-yl)cyclohexyl]biphenyl-4-sulfonamide], the IC50 amounted to 0.8 nM.

As for `CCc1cc(-c2cccc(OC)c2)ccc1S(=O)(=O)N[C@H]1CCC[C@@H](n2cnnc2)C1` [Compound 2Ar, 3-ethyl-3′-methoxy-N-[(1S,3R)-3-(4H-1,2,4-triazol-4-yl)cyclohexyl]biphenyl-4-sulfonamide], the IC50 turned out to be 27 nM.

`CCc1cc(-c2ccc(OC)c(F)c2)ccc1S(=O)(=O)N[C@H]1CCC[C@@H](n2cnnc2)C1` [Compound 2At, 3-ethyl-3′-fluoro-4′-methoxy-N-[(1S,3R)-3-(4H-1,2,4-triazol-4-yl)cyclohexyl]biphenyl-4-sulfonamide] displayed an IC50 of 39 nM.

Consider `O=S(=O)(N[C@H]1CCC[C@@H](n2cnnc2)C1)c1c(C2CC2)cc(-c2noc(C3CC3)n2)cc1C1CC1` [Compound 2Ra, 2,6-dicyclopropyl-4-(5-cyclopropyl-1,2,4-oxadiazol-3-yl)-N-[(1S,3R)-3-(4H-1,2,4-triazol-4-yl)cyclohexyl]benzenesulfonamide], for which the IC50 is 2.4 nM.

For `CCc1cc([N+](=O)[O-])ccc1S(=O)(=O)N[C@H]1CCC[C@@H](n2cnnc2)C1` [Compound 2Ae, 2-ethyl-4-nitro-N-[(1S,3R)-3-(4H-1,2,4-triazol-4-yl)cyclohexyl]benzenesulfonamide], the IC50 worked out at 381 nM.

`O=S(=O)(N[C@H]1CCC[C@@H](n2cnnc2)C1)c1cccc(OC(F)(F)F)c1` [Compound 2Mc, N-[(1S,3R)-3-(4H-1,2,4-triazol-4-yl)cyclohexyl]-3-(trifluoromethoxy)benzenesulfonamide] displayed a half-maximal inhibitory concentration (IC50) of 410 nM.

Take `O=S(=O)(N[C@H]1CCC[C@@H](n2cnnc2)C1)c1cc(-c2cccc3ccsc23)cc(C(F)(F)F)c1` [Compound 3Aq, 3-(1-benzothien-7-yl)-N-[(1S,3R)-3-(4H-1,2,4-triazol-4-yl)cyclohexyl]-5-(trifluoromethyl)benzenesulfonamide]: the IC50 worked out at 7 nM.

Compound `O=S(=O)(N[C@H]1CCC[C@@H](n2cnnc2)C1)c1cc(-c2ccc3ccc(OCC(F)(F)F)nc3c2)cc(C(F)(F)F)c1` [Compound 3Aag, N-[(1S,3R)-3-(4H-1,2,4-triazol-4-yl)cyclohexyl]-3-[2-(2,2,2-trifluoroethoxy)quinolin-7-yl]-5-(trifluoromethyl)benzenesulfonamide] showed an IC50 of 4.9 nM.

`O=S(=O)(N[C@H]1CCC[C@@H](n2cnnc2)C1)c1cc(OC(F)(F)F)cc(-c2ccccc2)c1` [Compound 3Ea, N-[(1S,3R)-3-(4H-1,2,4-triazol-4-yl)cyclohexyl]-5-(trifluoromethoxy)biphenyl-3-sulfonamide] registered a half-inhibitory concentration (IC50) of 10 nM.

In turn, `CCc1cc(-c2cscn2)ccc1S(=O)(=O)N[C@H]1CCC[C@@H](n2cnnc2)C1` [Compound 2Aay, 2-ethyl-4-(1,3-thiazol-4-yl)-N-[(1S,3R)-3-(4H-1,2,4-triazol-4-yl)cyclohexyl]benzenesulfonamide] returned a half-maximal inhibitory concentration (IC50) of 69 nM.

For the compound `Cc1nncn1[C@@H]1CCC[C@H](NS(=O)(=O)c2cc(-c3ccc(F)cc3)cc(C(F)(F)F)c2)C1` [Compound 3Ab, 4′-fluoro-N-[(1S,3R)-3-(3-methyl-4H-1,2,4-triazol-4-yl)cyclohexyl]-5-(trifluoromethyl)biphenyl-3-sulfonamide], the IC50 came out at 4.8 nM.

`CCc1cc(-c2ccc(OCC(F)(F)F)nc2)ccc1S(=O)(=O)N[C@H]1CCC[C@@H](n2cnnc2C)C1` [Compound 2Abe, 2-ethyl-N-[(1S,3R)-3-(3-methyl-4H-1,2,4-triazol-4-yl)cyclohexyl]-4-[6-(2,2,2-trifluoroethoxy)pyridin-3-yl]benzenesulfonamide] gave a 50% inhibitory concentration (IC50) of 0.2 nM.
